The source of these data is article PMC4995014, “Identification of ABC Transporter Interaction of a Novel Cyanoquinoline Radiotracer and Implications for Tumour Imaging by Positron Emission Tomography” (PLoS ONE, 2016).

The test system of experiment [1] is 3T3 cells. Kind of experiment: SRB cell viability assay in 3T3 cells. Format: cell-based. Particulars: Mus musculus, NIH3T3, 72 h. Here is the method: Cell viability by the sulforhodamine B (SRB) assay was used to assess cell growth and cytotoxicity of test compounds [29]. Cells were seeded at densities of 3,500 to 5,000 cells per well in 96 well plates overnight and pre-treated for 1 h with ABC transporter modulators: 10 μM fumitremorgin C (FTC; in MCF7MX and MCF7 cells), or 0.3 μM of zosuquidar (in 3T3 and 3T3-MDR1). Cells were then treated with test compounds for 72 h, at 37°C. After drug treatment, cells were fixed by addition of 50% trichloroacetic acid (TCA), and the plates washed and dried to allow staining with 0.4% solution of sulforhodamine B (Sigma) in 1% acetic acid for 30 minutes. Excess dye was removed upon washing with 1% acetic acid. Plates were dried and bound protein was solubilised upon addition of 150 μL of 10 mM Tris base buffer. Absorbance was measured at 540 nm using Thermo Multiskan-Ex plate reader. Cell viability versus compound concentration curves were plotted as a percentage of control cells. The concentration of drug that gave 50% inhibition in cell growth (GI50) was extrapolated from these curves using the sigmoid curve fit with variable slope in Prism (GraphPad Prism version 5.01, GraphPad Software, San Diego California USA). Three to six replicate wells were used for each drug concentration and experiments were carried out on three separate occasions for each compound.

Experiment [2] concerns the target T1, EGFR Del E746-A750 (PC9 cells) (Homo sapiens, UniProt P00533, DEL746-750).
T1 construct: endogenous in cells; host or cells: PC9 (Dr Olivier Pardo, Imperial College London)
Put plainly: Inhibition of EGFR autophosphorylation (p-EGFR Y1068, western blot) in PC9 cells. Format: cell-based. The note with it: 3 h incubation, densitometry of western blots. On the procedure:
(§1) Affinity of the cyanoquinolines for EGFR was established by measuring their inhibition of EGFR autophosphorylation via western blot. Cells were seeded in 6 well plates and following 24 h of growth, were subject to overnight serum starvation. The cells were then treated with increasing concentrations of cyanoquinolines prepared in serum free growth media from a DMSO stock (final DMSO concentration < 1%) for 3 h at 37°C, and stimulated for receptor autophosphorylation by addition of 100 ng/mL of EGF during the last 15 minutes of drug incubation. After 3 h the cells were placed on ice, media removed and then the cells were washed two times with ice cold phosphate buffered saline (PBS). Lysates were analysed by western blot to measure changes to p-EGFR Y1068.
(§2) Cells were collected into a microcentrifuge tube and sonicated for 30 seconds on ice. Cellular protein levels were assessed using a bicinchoninic acid (BCA) protein assay kit according to the manufacturer’s instructions (Thermo scientific). […] Samples were transferred to polyvinylidene difluoride (PVDF) membrane using Trans-Blot Turbo system BIO-RAD (Hercules, California, USA). […] The membranes were then incubated overnight with primary antibody prepared in 1% milk or 1% BSA in TBST. […] Membranes were washed a further three times for 10 minutes with TBST. […]

The target in experiment [3] is T2, EGFR Del E746-A750 (H1650 cells) (Homo sapiens, UniProt P00533, DEL746-750).
T2 construct: endogenous in cells; host or cells: H1650 (ATCC)
T2 sequence (P00533 with tags, fused parts or gaps DEL746-750): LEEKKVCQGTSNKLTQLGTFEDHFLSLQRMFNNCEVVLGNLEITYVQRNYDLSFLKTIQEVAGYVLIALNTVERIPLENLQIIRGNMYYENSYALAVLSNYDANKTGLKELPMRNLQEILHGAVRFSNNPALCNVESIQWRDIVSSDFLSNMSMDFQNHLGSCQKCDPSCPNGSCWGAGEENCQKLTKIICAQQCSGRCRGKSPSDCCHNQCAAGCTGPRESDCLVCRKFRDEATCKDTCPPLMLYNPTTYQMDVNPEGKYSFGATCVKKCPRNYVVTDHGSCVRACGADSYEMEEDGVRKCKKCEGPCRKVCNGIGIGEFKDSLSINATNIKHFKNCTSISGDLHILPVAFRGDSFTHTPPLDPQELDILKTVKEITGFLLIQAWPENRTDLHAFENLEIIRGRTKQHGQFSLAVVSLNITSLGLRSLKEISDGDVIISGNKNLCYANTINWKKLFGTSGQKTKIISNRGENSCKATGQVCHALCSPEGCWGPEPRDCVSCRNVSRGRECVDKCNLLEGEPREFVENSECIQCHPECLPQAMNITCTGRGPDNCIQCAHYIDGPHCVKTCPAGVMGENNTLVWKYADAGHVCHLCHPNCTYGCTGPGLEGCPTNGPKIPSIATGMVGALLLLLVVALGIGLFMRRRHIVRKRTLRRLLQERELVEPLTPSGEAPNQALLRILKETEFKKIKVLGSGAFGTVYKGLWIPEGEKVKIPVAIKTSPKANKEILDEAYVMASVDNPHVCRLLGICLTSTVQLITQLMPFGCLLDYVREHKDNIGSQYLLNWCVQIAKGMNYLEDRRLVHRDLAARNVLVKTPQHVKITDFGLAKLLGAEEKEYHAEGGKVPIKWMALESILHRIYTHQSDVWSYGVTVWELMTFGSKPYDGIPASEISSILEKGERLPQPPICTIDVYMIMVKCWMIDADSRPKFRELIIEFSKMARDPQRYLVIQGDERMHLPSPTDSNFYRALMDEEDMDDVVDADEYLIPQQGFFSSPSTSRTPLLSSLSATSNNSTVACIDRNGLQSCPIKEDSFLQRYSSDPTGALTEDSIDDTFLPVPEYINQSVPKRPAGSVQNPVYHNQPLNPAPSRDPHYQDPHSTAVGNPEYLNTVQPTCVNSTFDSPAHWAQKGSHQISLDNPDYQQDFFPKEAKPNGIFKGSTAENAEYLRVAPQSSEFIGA
Put plainly: Inhibition of EGFR autophosphorylation (p-EGFR Y1068, western blot) in H1650 cells. Format: cell-based. Particulars: 3 h incubation, EGF stimulated. On the procedure:
as §1
(§3) Cell lysates were prepared by addition of radioimmunoprecipitation assay (RIPA) buffer (50mM Tris-HCl pH 7.2, 150mM NaCl, 1% NP40, 1% sodium deoxycholate, 0.1% sodium dodecyl sulfate) supplemented with 1 x protease and phosphatase inhibitor cocktail (1mM 4-(2-Aminoethyl)benzenesulfonylfluoride hydrochloride, 800 nM aprotinin, 50 μM bestatin, 15 μM E-64, 5μM EDTA, 20 μM leupeptin, 10 μM pepstatin A; Thermo scientific, Waltham, Massachusetts, USA). […] Cellular protein levels were assessed using a bicinchoninic acid (BCA) protein assay kit according to the manufacturer’s instructions (Thermo scientific). […]

In experiment [4] the target is T3, EGFR L858R/T790M (H1975 cells) (Homo sapiens, UniProt P00533, L858R/T790M).
T3 construct: host or cells: H1975
T3 sequence (P00533 25-1210 T790M/L858R): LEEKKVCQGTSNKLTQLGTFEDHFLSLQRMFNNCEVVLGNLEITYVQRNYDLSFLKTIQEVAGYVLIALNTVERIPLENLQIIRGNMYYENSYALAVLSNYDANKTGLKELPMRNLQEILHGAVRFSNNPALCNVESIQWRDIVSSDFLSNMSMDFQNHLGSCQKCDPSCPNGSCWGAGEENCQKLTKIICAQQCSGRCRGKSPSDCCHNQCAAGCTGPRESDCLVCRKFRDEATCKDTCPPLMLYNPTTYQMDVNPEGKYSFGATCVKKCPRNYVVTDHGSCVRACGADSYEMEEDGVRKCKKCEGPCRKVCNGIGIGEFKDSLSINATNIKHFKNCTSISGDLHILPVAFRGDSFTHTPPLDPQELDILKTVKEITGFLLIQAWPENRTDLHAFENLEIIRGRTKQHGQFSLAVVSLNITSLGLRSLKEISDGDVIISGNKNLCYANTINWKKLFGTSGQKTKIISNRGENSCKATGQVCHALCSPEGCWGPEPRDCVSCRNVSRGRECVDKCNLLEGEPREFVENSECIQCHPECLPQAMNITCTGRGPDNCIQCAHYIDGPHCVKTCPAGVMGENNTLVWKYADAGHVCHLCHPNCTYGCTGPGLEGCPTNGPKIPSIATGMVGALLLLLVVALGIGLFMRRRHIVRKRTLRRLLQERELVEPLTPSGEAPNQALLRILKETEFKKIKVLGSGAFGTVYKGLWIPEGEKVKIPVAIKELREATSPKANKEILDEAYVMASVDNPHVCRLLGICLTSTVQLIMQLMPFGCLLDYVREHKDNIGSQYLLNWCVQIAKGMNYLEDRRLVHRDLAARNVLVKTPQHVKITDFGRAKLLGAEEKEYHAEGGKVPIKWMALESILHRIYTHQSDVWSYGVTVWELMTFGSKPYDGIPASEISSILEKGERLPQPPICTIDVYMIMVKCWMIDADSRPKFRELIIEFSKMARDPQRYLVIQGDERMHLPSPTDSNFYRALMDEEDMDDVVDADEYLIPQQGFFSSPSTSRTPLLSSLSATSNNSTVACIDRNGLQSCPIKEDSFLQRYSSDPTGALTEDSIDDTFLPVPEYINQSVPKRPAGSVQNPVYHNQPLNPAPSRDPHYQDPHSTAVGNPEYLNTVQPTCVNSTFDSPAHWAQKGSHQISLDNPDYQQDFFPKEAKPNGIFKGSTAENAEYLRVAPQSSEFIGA
Kind of experiment: Inhibition of EGFR autophosphorylation (p-EGFR Y1068, western blot) in H1975 cells. The note with it: 3 h incubation, EGF stimulated. Format: cell-based. On the procedure: as §1, §2
(In general: Immunoblotting shows a protein as a band on a membrane.)

Experiment [5] has as its target T4, wildtype EGFR (H358 cells) (Homo sapiens, UniProt P00533).
T4 construct: host or cells: H358
Kind of experiment: Inhibition of EGFR autophosphorylation (p-EGFR Y1068, western blot) in H358 cells. The note with it: 3 h incubation, EGF stimulated. The format is cell-based. On the procedure:
as §1, §3

In experiment [6] the test system is active mutant EGFR. Kind of experiment: Inhibition of EGFR autophosphorylation in active mutant EGFR expressing cell lines (H1650, PC9, H3255). Format: cell-based. The note with it: H1650 (del 746–750), PC9 (del 746–750) and H3255 (L858R) cells; read-out: IC50 p-EGFR Y1068 in active mutant EGFR expressing cell lines. On the procedure:
as §1, §3

Experiment [7] addresses T5, wildtype EGFR (Homo sapiens, UniProt P00533).
T5 construct: host or cells: H358; A549
Put plainly: Inhibition of EGFR autophosphorylation in wildtype EGFR expressing A549 and H358 cells. Format: cell-based. Particulars: read-out: IC50 p-EGFR Y1068 in wildtype EGFR expressing cells. Here is the method: as §1, §3

The test system of experiment [8] is EGFR. Also on record: method as in PMID 20797871, PMID 24307532. Particulars: cell-free; read-out: IC50 for inhibition of cell-free EGFR phosphorylation; cited from earlier work.

T1 sequence (P00533 with tags, fused parts or gaps DEL746-750): as the sequence (P00533 with tags, fused parts or gaps DEL746-750) above
T5 sequence (P00533 25-1210): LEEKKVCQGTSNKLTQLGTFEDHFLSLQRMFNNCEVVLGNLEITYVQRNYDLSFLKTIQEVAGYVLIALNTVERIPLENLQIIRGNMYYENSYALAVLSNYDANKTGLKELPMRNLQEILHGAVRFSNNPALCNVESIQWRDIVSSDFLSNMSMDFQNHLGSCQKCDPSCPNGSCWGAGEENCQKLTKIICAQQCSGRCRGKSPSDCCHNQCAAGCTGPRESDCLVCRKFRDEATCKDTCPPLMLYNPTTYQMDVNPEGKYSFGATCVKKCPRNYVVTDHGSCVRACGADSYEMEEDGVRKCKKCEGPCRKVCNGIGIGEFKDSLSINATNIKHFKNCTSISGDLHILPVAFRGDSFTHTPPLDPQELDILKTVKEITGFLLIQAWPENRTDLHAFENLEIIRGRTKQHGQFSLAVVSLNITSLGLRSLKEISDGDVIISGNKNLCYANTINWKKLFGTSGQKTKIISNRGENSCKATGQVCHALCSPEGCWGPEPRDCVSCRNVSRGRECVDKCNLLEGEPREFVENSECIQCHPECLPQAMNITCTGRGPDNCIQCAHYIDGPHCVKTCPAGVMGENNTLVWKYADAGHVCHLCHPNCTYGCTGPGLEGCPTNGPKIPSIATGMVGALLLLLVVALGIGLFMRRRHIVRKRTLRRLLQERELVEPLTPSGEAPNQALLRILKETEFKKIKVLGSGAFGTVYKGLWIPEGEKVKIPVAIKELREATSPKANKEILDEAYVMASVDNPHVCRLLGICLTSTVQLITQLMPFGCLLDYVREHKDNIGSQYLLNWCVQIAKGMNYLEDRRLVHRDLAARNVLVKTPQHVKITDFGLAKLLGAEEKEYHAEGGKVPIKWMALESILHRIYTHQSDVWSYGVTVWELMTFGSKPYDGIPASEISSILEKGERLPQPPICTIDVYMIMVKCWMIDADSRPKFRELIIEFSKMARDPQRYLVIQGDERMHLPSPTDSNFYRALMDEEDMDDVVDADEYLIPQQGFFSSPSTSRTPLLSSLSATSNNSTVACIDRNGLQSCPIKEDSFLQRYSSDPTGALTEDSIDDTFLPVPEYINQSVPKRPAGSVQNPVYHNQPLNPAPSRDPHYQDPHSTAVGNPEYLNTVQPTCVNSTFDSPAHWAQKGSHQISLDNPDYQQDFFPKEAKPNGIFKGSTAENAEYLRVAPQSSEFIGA

`CCOc1cc2ncc(C#N)c(Nc3ccc(F)c(Cl)c3)c2cc1NC(=O)/C=C/CNCc1cn(CCF)nn1` [FED6, (2E)-N-{4-[(3-chloro-4-fluorophenyl)amino]-3-cyano-7-ethoxyquinolin-6-yl}-4-({[1-(2-fluoroethyl)-1H-1,2,3-triazol-4-yl]methyl}amino)-but-2-enamide]: the figures for the GI50 in experiment [1] (pre-treatment with 0.3 μM zosuquidar) and in experiment [1] (without zosuquidar) were 7800 ± 700 nM and 10700 ± 1000 nM, respectively. The IC50 in experiment [2] was 22 nM; in experiment [3] it was 40 nM; in experiment [4], above 1000 nM; in experiment [5], 600 nM; in experiment [6], 8 to 40 nM; in experiment [7] it was 600 to 700 nM. Moreover, the IC50 in experiment [8] is 1.8 nM.

The term GI50 denotes the concentration giving 50% growth inhibition. What is called IC50 is the midpoint of a concentration-inhibition curve.
